The subject of one experiment is Type IV PDE. Briefly: PDE IV inhibitory activity (isozyme partially purified from rat neutrophils, 3H-cAMP substrate). To be noted: rat neutrophil PDE IV, 30° C., 30 minutes, read-out: PDE IV inhibiting action IC50. In kind it is biochemical. How it is done:
Type I, III, IV, and V PDE isozymes were prepared to study the PDE inhibitory activities of and selectivities with the compound of the invention [Trends Pharmacol Sci., 12, 19-27 (1991)]. Type I PDE was purchased from Sigma Corp. Type III, IV, and V PDE isozymes were partially purified from platelets (Type III and V) or neutrophils (Type IV) collected from rats. Each enzyme source was homogenized in a buffer (pH 6.5) containing 20 mM bisTris, 2 mM EDTA (i.e., ethlenediamine tetraacetate), 2-mercaptoethanol, 0.001 mM pepstatin and 0.01 mM leupeptin and was centrifuged at 30000×G for 30 minutes to obtain a supernatant, which was applied to an ion exchange column (Q-sepharose first flow, Pharmacia Corp.) and was eluted with 0 to 1M sodium acetate. Partially purified isozymes were identified by observing the inhibitory effects of conventional inhibitors.
Each PDE isozyme and the test compound dissolved in DMSO (i.e., dimethylsulfoxide) were added to 50 mM Tris--HCI buffer containing 5 mM magnesium chloride. ^3 H-cAMP (for type III and IV PDE) or ^3 H-cGMP (for type I and V PDE) were added as substrates and were reacted at 30° C. for 30 minutes. The reaction was terminated by placing the test tube in boiling water of 100° C. for 5 minutes. The nucleotides formed by PDE were broken down to ^3 H-adenosine or ^3 H-guanosine by 5'-nucleotidase. The substrate and reaction product were separated through an ion-exchange column (i.e., QAE sephadex, Pharmacia Corp.)
The eluted ^3 -H-nucleoside was measured for its radioactivity by a liquid scintillation counter. The inhibitory activities of the compound of the present invention are shown by the IC50 value (M). Further, the inhibitory activities of the test samples against type I, III, and V PDE are 1/10 or less than that against Type IV PDE.

Experiment [1] concerns TPA induced ear edema in mouse. Briefly: TPA induced mouse ear edema assay. The experiment is classed as in vivo, mouse (male ICR). To be noted: 0.1 mg applied to right ear immediately after TPA; 6 hour. The protocol: Male ICR mice, 5 week old, were divided into groups of seven to eight. 2 μg of TPA (phorbor 12-ministate; Sigma Co.) in 20 μl acetone was applied to the inner and outer surface of right ear of each mouse to cause a reaction. 0.1 mg of compound was dissolved in 20 μl of a tetrahydrofuran-methanol mixture (mixture ratio 1:1) and the solution (20 μl) applied to the right ear immediately after TPA treatment. After 6 hour, the animals were sacrificed and right ear was punched out (.phi. […]) and weighed. The effect of comppund.was calculated as % inhibition as follows: [formula]

Structures are written as SMILES.

A word on the IC50: it is the point on the concentration scale where inhibition reaches its midpoint.

Turning to `COc1ccc(N(C)C2=CC(=O)CCC2)cc1OC1Cc2ccccc2C1` [Compound No. 65, 3-[3-(2-indanyloxy)-4-methoxy-N-methylanilino]-2-cyclohexen-1-one], in the experiment on Type IV PDE, the IC50 came to 0.29 µM. For the same compound, the “% Inhibition of ear edema” value in experiment [1] came out at 52.5%.

`COc1ccc(N(Cc2ccccc2)C2=CC(=O)CCC2)cc1OC1Cc2ccccc2C1` [Compound No. 66, 3-[N-benzyl-3-(2-indanyloxy)-4-methoxyanilino]-2-cyclohexen-1-one]: the IC50 in the experiment on Type IV PDE turned out to be 0.57 µM. Further, the “% Inhibition of ear edema” value in experiment [1] was 72.8%.

On to `COc1ccc(NC2=CC(=O)CC2)cc1OC1CCCCC1` [Compound No. 13, 3-(3-cyclohexyloxy-4-methoxyanilino)-2-cyclopenten-1-one], for which, in the experiment on Type IV PDE, the IC50 came out at 7.4 µM. For the same compound, the “% Inhibition of ear edema” value in experiment [1] is given as 51.8%.

On to `COc1ccc(NC2=CC(=O)CC2)cc1OCC1(c2ccccc2)CC1` [Compound No. 49, 3-[4-methoxy-3-[(1-phenylcyclopropyl)methoxy]anilino]-2-cyclopenten-1-one], for which the IC50 in the experiment on Type IV PDE is 2.3 µM. The “% Inhibition of ear edema” value in experiment [1] was 54.3%.

`COc1ccc(N(C2=CC(=O)CC2)C2CCCC2)cc1OC1CCCC1` [Compound No. 60, 3-(N-cyclopentyl-3-cyclopentyloxy-4-methoxyanilino)-2-cyclopenten-1-one]: the IC50 in the experiment with Type IV PDE was 44 µM. Besides, in experiment [1], the “% Inhibition of ear edema” value is 78.5%.

Consider `COc1ccc(N(C)C2=CC(=O)CC2)cc1OC1CCCC1` [Compound No. 26, 3-(3-cyclopentyloxy-4-methoxy-N-methylanilino)-2-cyclopenten-1-one], for which the IC50 in the experiment with Type IV PDE came to 0.8 µM. Also, the “% Inhibition of ear edema” value in experiment [1] stood at 82.0%.

For `COc1ccc(NC2=C(C)C(=O)CC2)cc1OCC1CC1` [Compound No. 16, 3-(3-cyclopropylmethoxy-4-methoxyanilino)-2-methyl-2-cyclogenten-1-one], in the experiment with Type IV PDE, the concentration for half-maximal inhibition (IC50) was 1 µM. In experiment [1], the “% Inhibition of ear edema” value is 72.1%.

Regarding `COc1ccc(N(Cc2ccccc2)C2=CC(=O)CC2)cc1O[C@@H]1C[C@H]2CC[C@@H]1C2` (racemic) [Compound No. 81, 3-[N-benzyl-3-[(1RS,2RS,4SR)-bicyclo[2.2. 1]hept-2-yloxy]4-methoxyanilino]-2-cyclopenten-1-one], in the experiment on Type IV PDE, the IC50 came out at 1 µM. Also, in experiment [1], the “% Inhibition of ear edema” value came to 82.7%.

On to `COc1ccc(NC2=C(C)C(=O)CC2)cc1OCC1(c2ccccc2)CC1` [Compound No. 50, 3-[4-methoxy-3-[(1-phenylcyclopropyl)methoxy]anilino]-2-methyl-2-cyclopenten-1-one], for which the IC50 with Type IV PDE came out at 0.62 µM. In experiment [1], the “% Inhibition of ear edema” value is reported as 62.6%.

For `COc1ccc(NC2=CC(=O)CCC2)cc1O[C@@H]1C[C@H]2CC[C@@H]1C2` (relative stereo) [Compound No. 83, 3-[3-[rel(1R,2R,4S)-bicyclo[2.2. 1]hept-2-yloxy]-4-methoxyanilino]-2-cyclohexen-1-one], in the experiment on Type IV PDE, the IC50 was found to be 1.6 µM. Also, the “% Inhibition of ear edema” value in experiment [1] was determined as 70.5%.

In the case of `CCCCCN(C1=CC(=O)CC1)c1ccc(OC)c(OC2CCCC2)c1` [Compound No. 64, 3-(3-cyclopentyloxy-4-methoxy-N-pentylanilino)-2-cyclopenten-1-one], the IC50 in the experiment with Type IV PDE stood at 4.4 µM. In addition, in experiment [1], the “% Inhibition of ear edema” value is 52.0%.

For the compound `COc1ccc(N(C)C2=C(C)C(=O)CC2)cc1O[C@@H]1C[C@H]2CC[C@@H]1C2` (racemic) [Compound No. 47, 3-[3-[(1RS,2RS,4SR)-bicyclo[2.2. 1]hept-2-yloxy]4-methoxy-N-methylanilino]-2-methyl-2-cyclopenten-1-one], in the experiment with Type IV PDE, the IC50 amounted to 1.6 µM. Further, the “% Inhibition of ear edema” value in experiment [1] came to 59.9%.

`COc1ccc(N(Cc2ccncc2)C2=CC(=O)CCC2)cc1O[C@@H]1C[C@H]2CC[C@@H]1C2` (racemic) [Compound No. 85, 3-[3-[(1RS,2RS,4SR)-bicyclo[2.2. 1]hept-2-yloxy]4-methoxy-N-(4-pyridylmethyl)anilino]-2-cyclohexen-1-one]: the IC50 with Type IV PDE worked out at 3.6 µM. Also, the “% Inhibition of ear edema” value in experiment [1] worked out at 70.3%.

For `CCC1=C(Nc2ccc(OC)c(O[C@@H]3C[C@H]4CC[C@@H]3C4)c2)CCC1=O` (racemic) [Compound No. 45, 3-[3-[(1RS,2RS,4SR)-bicyclo[2.2. 1]hept-2-yloxy]-4-methoxyanilino]-2-ethyl-2-cyclopenten-1-one], in the experiment with Type IV PDE, the IC50 came out at 0.08 µM. Besides, the “% Inhibition of ear edema” value in experiment [1] came to 75.3%.

As for `COc1ccc(NC2=C(C)C(=O)CCC2)cc1OCCC1Cc2ccccc2C1` [Compound No. 53, 3-[3-[2-(2-indanyl)ethoxy]-4-methoxyanilino]-2-methyl-2-cyclohexen-1-one], the IC50 with Type IV PDE amounted to 0.22 µM. Moreover, in experiment [1], the “% Inhibition of ear edema” value is 55.9%.

Consider `COc1ccc(N(Cc2ccc3ccccc3c2)C2=CC(=O)CC2)cc1OC1Cc2ccccc2C1` [Compound No. 79, 3-[3-(2-indanyloxy)-4-methoxy-N-(2-naphthylmethyl)anilino]-2-cyclopenten-1-one], for which the IC50 in the experiment with Type IV PDE was 0.73 µM. Also, the “% Inhibition of ear edema” value in experiment [1] is listed as 89.0%.

For `COc1ccc(N(Cc2ccccc2)C2=CC(=O)CC2)cc1OC1CCCC1` [Compound No. 30, 3-(N-benzyl-3-cyclopentyloxy-4-methoxyanilino)-2-cyclopenten-1-one], the IC50 in the experiment with Type IV PDE is 2.6 µM. Moreover, in experiment [1], the “% Inhibition of ear edema” value came out at 78.4%.

Take `COc1ccc(NC2=C(C)C(=O)CCC2)cc1OC1Cc2ccccc2C1` [Compound No. 48, 3-[3-(2-indanyloxy)-4-methoxyanilino]-2-methyl-2-cyclohexen-1-one]: the IC50 in the experiment on Type IV PDE was 0.082 µM. Besides, in experiment [1], the “% Inhibition of ear edema” value came out at 53.8%.

On to `COc1ccc(NC2=C(C)C(=O)CC2)cc1OCCC1Cc2ccccc2C1` [Compound No. 35, 3-[3-[2-(2-indanyl)ethoxy]-4-methoxyanilino]-2-methyl-2-cyclopenten-1-one], for which the IC50 with Type IV PDE amounted to 0.29 µM. In addition, the “% Inhibition of ear edema” value in experiment [1] was 52.5%.

Consider `COc1ccc(N(C)C2=CC(=O)CCC2)cc1OC1CCCC1` [Compound No. 27, 3-(3-cyclopentyloxy-4-methoxy-N-methylanilino)-2-cyclohexen-1-one], for which the IC50 with Type IV PDE was 1.9 µM. Moreover, the “% Inhibition of ear edema” value in experiment [1] is 86.4%.

For the compound `COc1ccc(N(Cc2ccc3ccccc3c2)C2=CC(=O)CC2)cc1OC1CCCC1` [Compound No. 62, 3-[3-cyclopentyloxy-4-methoxy-N-(2-naphthylmethyl)anilino]-2-cyclopenten-1-one], the IC50 in the experiment with Type IV PDE stood at 1.2 µM. Further, the “% Inhibition of ear edema” value in experiment [1] came out at 78.8%.

`COc1ccc(N(Cc2ccccc2)C2=CC(=O)CC2)cc1OC1Cc2ccccc2C1` [Compound No. 77, 3-[N-benzyl-3-(2-indanyloxy)-4-methoxyanilino]-2-cyclopenten-1-one]: the IC50 in the experiment with Type IV PDE came out at 0.91 µM. In experiment [1], the “% Inhibition of ear edema” value is 50.9%.

Turning to `COc1ccc(NC2=C(C)C(=O)CC2)cc1OCCc1ccccc1` [Compound No. 12, 3-(4-methoxy-3-phenethyloxyanilino)-2-methyl-2-cyclopenten-1-one], in the experiment on Type IV PDE, the IC50 amounted to 0.71 µM. In addition, the “% Inhibition of ear edema” value in experiment [1] was determined as 52.5%.

On to `COc1ccc(NC2=C(C)C(=O)CCC2)cc1OC1CCCCC1` [Compound No. 55, 3-(3-cyclohexyloxy-4-methoxyanilino)-2-methyl-2-cyclohexen-1-one], for which the IC50 in the experiment on Type IV PDE is 2 µM. In addition, the “% Inhibition of ear edema” value in experiment [1] was 70.8%.

(Values after patent publication US6235736A, “3-anilino-2-cycloalkenone derivatives” (Nikken Chemicals Co., Ltd., priority 1997, dated 2001).)
